Test [1] deals with U-87 MG. The settings on record: Homo sapiens, time 24.0 hrs.
Test [2] relates to U-87 MG. The settings on record: Homo sapiens, time 24.0 hrs. This is another data set of the same source.
For another test, the system named is Detroit 562. The experiment in a line: Antiproliferative activity against human Detroit 562 cells harboring PI3KCA mutant assessed as cell growth inhibition incubated for 96 hrs by SRB assay. The format is functional. Background: Sulforhodamine B stains cellular protein and so reports cell mass.
In a further test the test system is MDA-MB-435. Put plainly: Antiproliferative activity against human MDA-MB-435 cells harboring AKT assessed as cell growth inhibition incubated for 96 hrs by SRB assay. The format is functional.
The test system of the next test is MDA-MB-468. The experiment in a line: Antiproliferative activity against human MDA-MB-468 cells harboring PTEN deletion assessed as cell growth inhibition incubated for 96 hrs by SRB assay. The format is functional.
The subject of test [3] is HCT-116. The experiment in a line: Inhibition of recombinant PI3K in human HCT-116 cells assessed as increase in cleavage of PARP at 10 times of GI50 concentration incubated for 24 hrs by immunoblot analysis. The format is cell-based. On the technique in general: Immunoblotting shows a protein as a band on a membrane.
In the next test the test system is A549. The experiment in a line: Antiproliferative activity against human A549 cells harboring AKT assessed as cell growth inhibition incubated for 96 hrs by SRB assay. It counts as functional.
Test [4] concerns HCT-116. The experiment in a line: Antiproliferative activity against human HCT-116 cells harboring PI3KCA mutant assessed as cell growth inhibition incubated for 96 hrs by SRB assay. It counts as functional.
Another test relates to PC-3. The experiment in a line: Antiproliferative activity against human PC-3 cells harboring PTEN deletion assessed as cell growth inhibition incubated for 96 hrs by SRB assay. The format is functional.
Test [5] concerns U-87 MG. The experiment in a line: Antiproliferative activity against human U-87MG cells harboring PTEN deletion assessed as cell growth inhibition incubated for 96 hrs by SRB assay. It counts as functional, U-87MG ATCC.
In another test the test system is A2780. The experiment in a line: Antiproliferative activity against human A2780 cells harboring PI3KCA/PTEN mutant assessed as cell growth inhibition incubated for 96 hrs by SRB assay. The format is functional.
The subject of test [6] is HCT-116. Put plainly: Inhibition of recombinant PI3K in human HCT-116 cells assessed as increase in cleavage of PARP at 5 times of GI50 concentration incubated for 24 hrs by immunoblot analysis. It counts as cell-based.
The test system of another test is IGROV-1. The experiment in a line: Antiproliferative activity against human IGROV-1 cells harboring PI3KCA/PTEN mutant assessed as cell growth inhibition incubated for 96 hrs by SRB assay. It counts as functional.

The source made the active and inactive calls. The calls are words filed in the database; no cut-off is given here.

`O=c1cc(N2CCOCC2)oc2c(-c3ccccc3)cccc12` [LY-294002]: the inhibition result in the test on U-87 MG [1], in the test on U-87 MG [2], in the test with HCT-116 [3] and in the test with HCT-116 [6] was “Active” in each case. Also, the GI50 – broadly, the concentration giving 50% growth inhibition – in the test on Detroit 562 is 12.1 µM; in the test on MDA-MB-435, 15.3 µM; in the test with MDA-MB-468, 6.5 µM; with A549, 9 µM; in the test with HCT-116 [4], 10.5 µM; in the test on PC-3 it was 4.6 µM. Also, the GI50 with U-87 MG [5] was determined as 9.8 µM; in the test with A2780, 5.58 µM; with IGROV-1 it was 5.5 µM.

The values are drawn from ChEMBL document CHEMBL5661974, “Pharmacologic characterization of a potent inhibitor of class I phosphatidylinositide 3-kinases” (Cancer Res, 2007).
